The text below walks through data of paper PMC10853936, “Heterologous investigation of metabotropic and ionotropic odorant receptors in ab3A neurons of Drosophila melanogaster” (Frontiers in Molecular Biosciences, 2024).

The target in this experiment is T1, CpomOrco (homomeric) (Cydia pomonella, UniProt H9A5M2).
T1 construct: full-length CDS in pcDNA5/TO, expressed alone in HEK293 cells (HEK293A in methods, HEK293T in results)
T1 sequence (H9A5M2 1-473): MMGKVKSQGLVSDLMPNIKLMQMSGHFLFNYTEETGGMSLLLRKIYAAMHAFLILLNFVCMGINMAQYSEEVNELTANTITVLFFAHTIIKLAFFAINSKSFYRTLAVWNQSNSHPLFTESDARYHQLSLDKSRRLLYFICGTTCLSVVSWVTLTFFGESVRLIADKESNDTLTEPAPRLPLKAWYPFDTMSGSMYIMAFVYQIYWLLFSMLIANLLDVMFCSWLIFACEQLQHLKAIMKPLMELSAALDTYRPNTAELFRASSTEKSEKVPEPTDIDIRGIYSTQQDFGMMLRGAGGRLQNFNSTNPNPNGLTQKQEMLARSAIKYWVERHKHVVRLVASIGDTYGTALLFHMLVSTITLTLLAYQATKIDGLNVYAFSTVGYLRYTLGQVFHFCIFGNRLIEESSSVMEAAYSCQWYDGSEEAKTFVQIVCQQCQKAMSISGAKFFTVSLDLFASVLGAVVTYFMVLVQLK
Put plainly: Fluo-4 calcium imaging in HEK293 cells, Hill fit. It is filed as cell-based. To be noted: read-out: [VUAA1]1/2.

Take `CCc1ccc(NC(=O)CSc2nnc(-c3cccnc3)n2CC)cc1` [VUAA1, acetamide, N-(4-ethylphenyl)-2-[[4-ethyl-5-(3-pyridinyl)-4H-1,2,4-triazol-3-yl]thio]-]: the EC50 turned out to be 284 ± 39 µM.
